Reference: the CATMoS acute toxicity set (Mansouri et al. 2021)

Assay: GHS categories as the set defines them, by LD50: 1 up to 5, 2 up to 50, 3 up to 300, 4 up to 2000, 5 above 2000 mg/kg
Details: rat; in vivo; po

Row | SMILES | GHS category
1 | CC(C)=CCOc1ccc(/C=C/C(=O)c2ccc(OCC=C(C)C)cc2OCC(=O)O)cc1 | 5
2 | CCOc1cc(NCCCN(C)C)c(=O)n(-c2ccccc2)n1 | 5
3 | CC(C)C1C(=O)N(c2ccccc2)N(c2ccc(O)cc2)C1=O (configuration not stated) | 4
4 | CCCCCCCCCCCCCCCCCCOC(=O)CCSCCC(=O)OCCCCCCCCCCCCCCCCCC | 5
5 | Cc1cccc2ncc(C(=O)NCC(C)(C)C)c(=O)n12 | 3
6 | CC1COC(Cn2cncn2)(c2cc3cc(Cl)cc(Cl)c3o2)O1 (configuration not stated) | 4
7 | COc1ccc(C(=O)Nc2ccccc2)cc1N=Nc1c(O)c(C(=O)Nc2cc(Cl)ccc2OC)cc2ccccc12 | 5
8 | Cc1cc(C)c(Nc2ccc(Nc3c(C)cc(C)cc3C)c3c2C(=O)c2ccccc2C3=O)c(C)c1 | 5
9 | OC(OCC(COC(O)C(Cl)(Cl)Cl)(COC(O)C(Cl)(Cl)Cl)COC(O)C(Cl)(Cl)Cl)C(Cl)(Cl)Cl (configuration not stated) | 4
10 | CCCC/C=C/CC/C=C\CCCCCCOC(C)=O | 5
11 | N[C@@H](CSCC(=O)O)C(=O)O | 5
12 | CC1COc2ccccc2N1C(=O)C(Cl)Cl (configuration not stated) | 5
13 | CCN(CC)CC1CC2(CC(CN(CC)CC)OC2=O)C(=O)O1 (configuration not stated) | 5
14 | O=C(CC(=O)c1ccccc1)c1ccccc1 | 5
15 | COc1cc(C#N)cc(OC)c1O | 5
16 | NCCCCCCCCCCCC(=O)O | 5
17 | C/C=C/C(=O)OC | 5
18 | CCCCCCCCCCBr | 5
19 | O=C(O)CCCCCCCCCCCC(=O)O | 5
20 | CC(=O)OC1C=CC(C)=CCC(O)C=CC(C)=CC(NC(=O)C(C)=O)C2(C)C(=O)OC(C1)C(C)C2=O (configuration not stated) | 5
21 | CCCc1c(Cc2ccc(-c3ccccc3-c3nn[nH]n3)cc2)c(=O)nc2nc[nH]n12 | 4
22 | CC[C@H](c1ccc(O)cc1)[C@@H](CC)c1ccc(O)cc1 | 5
23 | Clc1ccc(I)cc1Cc1ccc(OC2CCOC2)cc1 (configuration not stated) | 5
24 | CC(C)=CCC/C(C)=C/COC=O | 5
25 | CCOC(=O)c1ccc(NC(=O)C=C(C)C=CC=C(C)C=CC2=C(C)CCCC2(C)C)cc1 | 5
26 | C[C@H]1[C@H](NC(=O)C(=NOC(C)(C)C(=O)O)c2csc(N)n2)C(=O)N1S(=O)(=O)O | 5

Row | SMILES | GHS category
27 | CC1C(C)(C)C2=C(C3OCOCC3CC2)C1(C)C (configuration not stated) | 5
28 | Cc1cc(=O)nc(C(C)(C)O)[nH]1 | 5
29 | O=C1C=CC(=NNc2ccc(N=Nc3ccc(-c4ccc(NN=C5C=CC(=O)C(C(=O)O)=C5)cc4)cc3)c3ccc(S(=O)(=O)O)cc23)C=C1 | 5
30 | O=C1c2ccc(Br)cc2C(=O)C1(Br)c1ccc2ccccc2c1 (configuration not stated) | 5
31 | CCCCCCC(O)CCCCCCCCCCC(=O)OCC(COC(=O)CCCCCCCCCCC(O)CCCCCC)OC(=O)CCCCCCCCCCC(O)CCCCCC (configuration not stated) | 5
32 | Clc1ccc2c(n1)C(c1ccccc1Cl)=NCc1nncn1-2 | 5
33 | CCOP(=S)(Oc1cnc(C(C)(C)C)nc1)OC(C)C (configuration not stated) | 1
34 | COc1cc2c(cc1OC)C(c1ccccc1F)N(c1ccccc1)CC2 (configuration not stated) | 4
35 | C#C[C@]1(O)CC[C@H]2[C@@H]3CCc4cc(OC)ccc4[C@H]3CC[C@@]21C | 5
36 | O=C(O)c1cc(O)ccc1Nc1ccc(O)c(C(F)(F)F)c1 | 4
37 | NC(=O)Nc1ccc(Cl)c(Cl)c1 | 4
38 | OCCOc1nn(-c2cccc(C(F)(F)F)c2)c2ncccc12 | 4
39 | CC(=O)SC[C@@H](C)C(=O)N1CCC[C@H]1C(=O)N[C@@H](Cc1ccccc1)C(=O)O | 5
40 | C[C@@H](O)[C@H]1C(=O)N2C(C(=O)O)=C(S[C@@H]3CN[C@H](C(=O)N(C)C)C3)[C@H](C)[C@H]12 | 5
41 | C#C[C@]1(O)CC[C@H]2[C@@H]3CCC4=CC(=O)CC[C@]4(C)[C@H]3CC[C@@]21C | 5
42 | CC(C)=CCN(CC=C(C)C)CCC(C#N)(CCN(CC=C(C)C)CC=C(C)C)c1cccc2ccccc12 | 4
43 | CC(C)(C)c1ccc(OP(=O)(Oc2ccccc2)Oc2ccccc2)cc1 | 5
44 | CCOCc1nc(=O)c2nccnc2[nH]1 | 5
45 | CCC=CCC=O | 5
46 | CC(=O)O[C@@]12CCC[C@@](C)(CC[C@@H]3[C@@H]1CC3(C)C)C2 | 5
47 | COc1cc(OC)nc(NC(=O)Oc2ccccc2)n1 | 5
48 | CC(O)CO[C@@H]1[C@@H](O)[C@H]2O[C@H]3[C@H](OCC(C)O)[C@@H](O)[C@@H](O[C@H]4[C@H](O)[C@@H](OCC(C)O)[C@@H](O[C@H]5[C@H](O)[C@@H](O)[C@@H](O[C@H]6[C@H](O)[C@@H](OCC(C)O)[C@@H](O[C@H]7[C@H](O)[C@@H](O)[C@@H](O[C@@H]1[C@@H](CO)O2)O[C@@H]7CO)O[C@@H]6CO)O[C@@H]5CO)O[C@@H]4CO)O[C@@H]3CO (some centres not stated) | 5
49 | NCC[C@H](O)C(=O)N[C@@H]1C[C@H](N)[C@@H](O[C@H]2O[C@H](CN)CC[C@H]2N)[C@H](O)[C@H]1O[C@H]1O[C@H](CO)[C@@H](O)[C@H](N)[C@H]1O | 5
50 | C=CC1CCC(C2CCC(CCC)CC2)CC1 (configuration not stated) | 5
51 | CN1CCN(CC(=O)N(C)c2ccc(N)cc2)CC1 | 5
52 | Cc1cccc2ncc(C(=O)NC3CCCCC3)c(=O)n12 | 3

Row | SMILES | GHS category
53 | COc1ccc(C(=O)CC(=O)c2ccc(C(C)(C)C)cc2)cc1 | 5
54 | CCCCCCCC1CCCC1=O (configuration not stated) | 5
55 | CN1C(=O)COc2cc(C(=O)C=Cc3ccc(O)cc3)ccc21 | 5
56 | CC(C)OC(=O)C(C)(C)Oc1ccc(C(=O)c2ccc(Cl)cc2)cc1 | 5
57 | CCC(=O)OC1C=CC2C3CCC(C3)C12 (configuration not stated) | 5
58 | O=C1CCc2cc(OCCCCc3nnnn3C3CCCCC3)ccc2N1 | 5
59 | CC(=O)C(O)O | 5
60 | CNC(C)C(O)c1ccc(NS(C)(=O)=O)cc1 (configuration not stated) | 5
61 | N[C@@H](C(=O)N[C@@H]1C(=O)N2C(C(=O)O)=C(Cl)CS[C@H]12)c1ccccc1 | 5
62 | CCCCCC(=Cc1ccccc1)C(OCC)OCC | 5
63 | CC1Oc2cc(C(=O)C=Cc3ccccc3)ccc2N(C)C1=O (configuration not stated) | 5
64 | Cc1cccc(C)c1OP(=O)(Oc1c(C)cccc1C)Oc1c(C)cccc1C | 5
65 | Cc1cccc2ncc(C(=O)Nc3ccccc3)c(=O)n12 | 3
66 | CCC=CCCCCCCCCCCCCCCOCC | 5
67 | CO/N=C(\C(=O)N[C@@H]1C(=O)N2C(C(=O)OCOC(=O)C(C)(C)C)=C(/C=C\c3scnc3C)CS[C@H]12)c1csc(N)n1 | 5
68 | CC1(c2ccc(Oc3ccccc3)cc2)OC(=O)N(Nc2ccccc2)C1=O (configuration not stated) | 5
69 | O=C(O)c1ccccc1SSc1ccccc1C(=O)O | 5
70 | Cc1ccc(SCOC(Cn2ccnc2)c2ccc(Cl)cc2Cl)cc1 (configuration not stated) | 5
71 | Cc1ccc(Nc2ccc(Nc3ccc(C)cc3S(=O)(=O)O)c3c2C(=O)c2ccccc2C3=O)c(S(=O)(=O)O)c1 | 5
72 | CCCCCCCC(O)CCO (configuration not stated) | 5
73 | O=Cc1cc([N+](=O)[O-])ccc1Cl | 5
74 | O=S(O)c1ccc(Cl)cc1 | 4
75 | CCC[C@H]1CC[C@H](c2ccc(O)cc2)CC1 | 5
76 | CC(C)c1cc(C(C)C)c(N)c(C(C)C)c1N | 4
77 | COc1ccc(C(=O)Nc2ccc(C(N)=O)cc2)cc1[N+](=O)[O-] | 5
